The Ki is the dissociation constant of the complex between target and ligand, obtained from inhibition or displacement.

The structures appear in SMILES notation. Structures can show the parent of a compound that is named as a salt.

In this experiment the target is T1, σ1-receptor (Cavia porcellus, UniProt Q60492).
T1 construct: guinea pig brains were homogenized; from tissue; host or cells: guinea pig brain membranes
The experiment can be described thus: σ1-receptor binding assay, [3H](+)-pentazocine, guinea pig brain membranes. To be noted: [3H](+)-pentazocine 0.5 nM, non-specific binding 1 μM haloperidol, 37° C., 150 min. As for the experimental part: Some representative compounds of the invention were tested for their activity as sigma (sigma-1) inhibitors. The following protocol was followed:
Brain membrane preparation and binding assays for the σ1-receptor were performed as described (DeHaven-Hudkins et al., 1992) with some modifications. In brief, guinea pig brains were homogenized in 10 vols. (w/v) of Tris-HCl 50 mM 0.32 M sucrose, pH 7.4, with a Kinematica Polytron PT 3000 at 15000 r.p.m. for 30 s. The homogenate was centrifuged at 1000 g for 10 min at 4° C. and the supernatants collected and centrifuged again at 48000 g for 15 min at 4° C. The pellet was resuspended in 10 volumes of Tris-HCl buffer (50 mM, pH 7.4), incubated at 37° C. for 30 min, and centrifuged at 48000 g for 20 min at 4° C. Following this, the pellet was resuspended in fresh Tris-HCl buffer (50 mM, pH 7.4) and stored on ice until use.
Each assay tube contained 10 μL of [^3H](+)-pentazocine (final concentration of 0.5 nM), 900 μL of the tissue suspension to a final assay volume of 1 mL and a final tissue concentration of approximately 30 mg tissue net weight/mL. Non-specific binding was defined by addition of a final concentration of 1 μM haloperidol. All tubes were incubated at 37° C. for 150 min before termination of the reaction by rapid filtration over Schleicher & Schuell GF 3362 glass fibre filters [previously soaked in a solution of 0.5% polyethylenimine for at least 1 h]. Filters were then washed with four times with 4 mL of cold Tris-HCl buffer (50 mM, pH 7.4). Following addition of scintillation cocktail, the samples were allowed to equilibrate overnight. The amount of bound radioactivity was determined by liquid scintillation spectrometry using a Wallac Winspectral 1414 liquid scintillation counter. Protein concentrations were determined by the method of Lowry et al, (1951).

T1 sequence (Q60492 whole entry): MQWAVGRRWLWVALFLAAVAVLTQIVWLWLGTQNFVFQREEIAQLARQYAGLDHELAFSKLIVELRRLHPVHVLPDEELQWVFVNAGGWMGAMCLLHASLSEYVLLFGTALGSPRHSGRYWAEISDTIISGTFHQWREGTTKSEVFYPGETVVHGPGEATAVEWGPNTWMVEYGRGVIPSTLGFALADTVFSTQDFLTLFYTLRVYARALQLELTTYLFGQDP

Regarding `Cc1cc(COCCN2CCOCC2)nn1-c1ccc(Cl)c(Cl)c1` [Compound 1, 4-(2-{[1-(3,4-dichlorophenyl)-5-methyl-1H-pyrazol-3-yl]methoxy}ethyl)morpholine], the affinity, expressed as Ki, was 13.8 nM. This lies in the double-digit nanomolar range.

Compound `Cc1cc(COCCN2CCOCC2)nn1-c1ccc2ccccc2c1` [Compound 2, 4-(2-{[1-(2-naphthyl)-5-methyl-1H-pyrazol-3-yl]methoxy}ethyl)morpholine] showed a Ki of 209 nM.

The compound `Cc1cc(CCCN2CCOCC2)nn1-c1ccc(Cl)c(Cl)c1` [Compound 3, 4-{3-[1-(3,4-dichlorophenyl)-5-methyl-1H-pyrazol-3-yl]propyl}morpholine] registered a Ki of 4.74 nM.

As for `Cc1cc(CCCN2CCOCC2)nn1-c1ccc2ccccc2c1` [Compound 4, 4-{3-[5-Methyl-1-(2-naphthyl)-1H-pyrazol-3-yl]propyl}morpholine], the inhibition constant Ki worked out at 132 nM.

`Cc1cc(CCOCCN2CCOCC2)nn1-c1ccc(Cl)c(Cl)c1` [Compound 5, 4-(2-{2-[1-(3,4-dichlorophenyl)-5-methyl-1H-pyrazol-3-yl]ethoxy)ethyl}morpholine]: the Ki amounted to 113 nM.

In turn, `Cc1cc(COCCN2CCOCC2)nn1C1CCCCC1` [Compound 6, 4-(2-((1-cyclohexyl-5-methyl-1H-pyrazol-3-yl)methoxy)ethyl)-morpholine] had a Ki of 23.6 nM.

In turn, `Cc1cc(CCCN2CCOCC2)nn1C1CCCCC1` [Compound 7, 4-(3-(1-cyclohexyl-5-methyl-1H-pyrazol-3-yl)propyl)morpholine] gave a Ki of 53.3 nM.

Compound `Cc1cc(COCCN2CCCC2)nn1-c1ccc(Cl)c(Cl)c1` [Compound 8, 1-(3,4-dichlorophenyl)-5-methyl-3-((2-(pyrrolidin-1-yl)ethoxy)methyl)-1H-pyrazole] returned a Ki of 6.12 nM. This Ki lies about 8.7-fold lower than the previous one.

`Cc1cc(COCCN2CCCCC2)nn1-c1ccc(Cl)c(Cl)c1` [Compound 9, 1-(2-((1-(3,4-dichlorophenyl)-5-methyl-1H-pyrazol-3-yl)methoxy)ethyl)-piperidine] yielded a Ki of 2.09 nM.

With `CC(=O)N1CCN(CCOCc2cc(C)n(-c3ccc(Cl)c(Cl)c3)n2)CC1` [Compound 10, 1-(4-(2-((1-(3,4-dichlorophenyl)-5-methyl-1H-pyrazol-3-yl)methoxy)ethyl)-piperazin-1-yl)-ethanone], the Ki was determined as 14.6 nM.

Consider `Cc1cc(COCCN2C[C@@H](C)O[C@@H](C)C2)nn1-c1ccc(Cl)c(Cl)c1` [Compound 11, (2S,6R)-4-(2-((1-(3,4-dichlorophenyl)-5-methyl-1H-pyrazol-3-yl)methoxy)ethyl)-2,6-dimethylmorpholine], for which affinity was put at a Ki of 3.2 nM.

`Cc1cc(COCCN2CCOCC2)nn1-c1cnc2ccccc2c1` [Compound 12, 4-(2-((5-methyl-1-(quinolin-3-yl)-1H-pyrazol-3-yl)methoxy)ethyl)-morpholine] displayed a Ki of 771 nM.

Consider `Cc1cc(CCCCN2CCOCC2)nn1-c1ccc(Cl)c(Cl)c1` [Compound 13, 4-(4-(1-(3,4-dichlorophenyl)-5-methyl-1H-pyrazol-3-yl)butyl)morpholine], for which affinity was put at a Ki of 8.62 nM.

`Cc1cc(CCCN2CCOCC2)nn1-c1cnc2ccccc2c1` [Compound 14, 4-(3-(5-methyl-1-(quinolin-3-yl)-1H-pyrazol-3-yl)propyl)morpholine] showed a Ki of 281 nM.

Compound `Clc1ccc(-n2ccc(COCCN3CCOCC3)n2)cc1Cl` [Compound 15, 4-(2-((1-(3,4-dichlorophenyl)-1H-pyrazol-3-yl)methoxy)ethyl)-morpholine] yielded a Ki of 2.13 nM. This Ki lies about 130-fold lower than the previous one.

As for `Cc1c(COCCN2CCOCC2)nn(-c2ccc(Cl)c(Cl)c2)c1C` [Compound 16, 4-(2-((1-(3,4-dichlorophenyl)-4,5-dimethyl-1H-pyrazol-3-yl)methoxy)ethyl)-morpholine], the inhibitory constant (Ki) worked out at 22.9 nM.

In the case of `c1ccc2ncc(-n3ccc(CCCN4CCOCC4)n3)cc2c1` [Compound 17, 4-(3-(1-(quinolin-3-yl)-1H-pyrazol-3-yl)propyl)morpholine], the Ki stood at 154 nM.

With `Clc1ccc(-n2ccc(CCCCN3CCOCC3)n2)cc1Cl` [Compound 18, 4-(4-(1-(3,4-dichlorophenyl)-1H-pyrazol-3-yl)butyl)morpholine], the affinity corresponds to a Ki of 6.28 nM.

`Cc1cc(COCCCN2CCOCC2)nn1C1CCCCC1` [Compound 20, 4-(3-((1-cyclohexyl-5-methyl-1H-pyrazol-3-yl)methoxy)propyl)-morpholine]: affinity was put at a Ki of 6.8 nM. The Ki values of the last two compounds are within 1.5-fold of each other.

`Cc1cc(COCCN2CCOCC2)nn1C1CCCC1` [Compound 21, 4-(2-((1-cyclopentyl-5-methyl-1H-pyrazol-3-yl)methoxy)ethyl)-morpholine] had a Ki of 240 nM.

Regarding `CC(=O)N1CCN(CCOCc2cc(C)n(C3CCCCC3)n2)CC1` [Compound 22, 1-(4-(2-((1-cyclohexyl-5-methyl-1H-pyrazol-3-yl)methoxy)ethyl)-piperazin-1-yl)ethanone hydrochloride], affinity was put at a Ki of 101 nM. Against the preceding compound, the Ki is about 2.4-fold lower.

Take `Cc1cc(COCCN2C[C@@H](C)N[C@@H](C)C2)nn1C1CCCCC1` [Compound 23, (3S,5R)-1-(2-((1-cyclohexyl-5-methyl-1H-pyrazol-3-yl)methoxy)ethyl)-3,5-dimethylpiperazine hydrochloride]: the affinity corresponds to a Ki of 488 nM.

Consider `Cc1cc(CCOCCN2CCOCC2)nn1C1CCCCC1` [Compound 24, 4-(2-(2-(1-cyclohexyl-5-methyl-1H-pyrazol-3-yl)ethoxy)ethyl)-morpholine hydrochloride], for which the inhibition constant (Ki) was 266 nM.

`c1cn(C2CCCCC2)nc1COCCN1CCOCC1` [Compound 25, 4-(2-((1-cyclohexyl-1H-pyrazol-3-yl)methoxy)ethyl)-morpholine-hydrochloride] yielded a Ki of 11.3 nM.

Turning to `Cc1c(COCCN2CCOCC2)nn(C2CCCCC2)c1C` [Compound 26, 4-(2-((1-cyclohexyl-4,5-dimethyl-1H-pyrazol-3-yl)methoxy)ethyl)-morpholine hydrochloride], the affinity corresponds to a Ki of 110 nM.

(Values after patent publication US9181195B2, “Sigma receptor inhibitors” (Laboratorios Del Dr. Esteve, S.A., priority 2010, dated 2015).)
